We go through 52 molecules from patent US8759537B2, “3H-imidazo [4, 5-C] pyridine-6-carboxamides as anti-inflammatory agents” (Boehringer Ingelheim International GmbH, priority 2010, dated 2014).

For one assay, the target named is mPGES-1 (Homo sapiens (Human), UniProt O14684). Put plainly: A549 cell-based assay (PGE2 formation, IL-1β stimulated, 50% human serum). The settings on record: A549 cells, IL-1β 5 ng/ml, read-out: mPGES-1 inhibitory effect in the cell assay, IC50. Here is the method: Although the enzymatic assay is a high throughput assay the disadvantage is that it uses a recombinant protein which is not in its natural environment. Accordingly a cellular assay was established in which a cell line of human origin (A549) expressing the mPGES-1 protein was used. In addition in order to mimic the situation in humans in which compounds can be bound to plasma proteins 50% human serum is added in the assay.
Sequence of mPGES-1 (O14684 whole entry): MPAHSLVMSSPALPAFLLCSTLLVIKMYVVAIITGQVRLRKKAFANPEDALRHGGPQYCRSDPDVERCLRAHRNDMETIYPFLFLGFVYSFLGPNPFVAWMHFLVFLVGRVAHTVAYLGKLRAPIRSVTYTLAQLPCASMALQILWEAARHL
Cells were detached using Trypsin-EDTA. A549 cells were seeded in a 384-well collagene plate at a density of 7000 cells/well (50 μl) in F-12 medium containing 1% Penicillin-Streptomycin and 50% human serum. The cells were allowed to attach for 3-4 h. […] The total volume is 100 μl.
Concentrations of PGE2 in the cell free medium (10 μl) were measured using a commercially available HTRF kit from Cisbio (as described above). The PGE2 formation in the absence of test compound was taken as 100%.
IC50 values were derived from at 6-8 point titrations using conventional software.
`Cn1c(Nc2c(Cl)ccc(CNC(=O)C(C)(N)C(F)(F)F)c2Cl)nc2cc(C(=O)NCC(F)(F)F)c(OCC(F)F)cc21` (stereo not shown) [Example 98]: the IC50 amounted to 2 nM.
Same read-out and setting: to `Cn1c(Nc2c(Cl)ccc(CNC(=O)C3(C)CC3)c2Cl)nc2cc(C(=O)NCC(F)(F)F)c(OCC(F)F)cc21` [Example 103] belongs 18 nM; to `CCC(=O)NCc1ccc(Cl)c(Nc2nc3cc(C(=O)NCC(F)(F)F)c(OCC(F)F)cc3n2C)c1Cl` [Example 111], 7 nM.
On the same count and under the same terms, to `Cn1c(Nc2c(Cl)ccc(CNC(=O)C3(O)CC3)c2Cl)nc2cc(C(=O)Nc3ccc(F)c(Cl)c3)c(OCC(F)F)cc21` [Example 171] belongs 4 nM.
On the same count and under the same terms, to `Cn1c(Nc2c(Cl)ccc(CNC(=O)C3CC(F)(F)C3)c2Cl)nc2cc(C(=O)Nc3ccc(F)c(Cl)c3)c(OCC(F)F)cc21` [Example 167] belongs 6 nM; to `Cn1c(Nc2c(Cl)ccc(CNC(=O)C(N)C(F)(F)F)c2Cl)nc2cc(C(=O)Nc3ccc(F)c(Cl)c3)c(OCC(F)F)cc21` (stereo not shown) [Example 164], 15 nM; to `Cn1c(Nc2c(Cl)ccc(CNC(=O)C3(C(F)(F)F)CC3)c2Cl)nc2cc(C(=O)Nc3ccc(F)c(Cl)c3)c(OCC(F)F)cc21` [Example 174], less than 1 nM.
For `CC(C)(C)C(=O)NCc1ccc(Cl)c(Nc2nc3c(F)c(OCC(F)(F)F)c(C(=O)N[C@H]4CC[C@H](C(F)(F)F)CC4)cc3[nH]2)c1Cl` [Example 79], the half-inhibitory concentration (IC50) is 1 nM.
Consider `Cn1c(Nc2c(Cl)ccc(CNC(=O)C3CC(F)(F)C3)c2Cl)nc2cc(C(=O)NCC(F)(F)F)c(OCC(F)F)cc21` [Example 102], for which the IC50 amounted to 15 nM.
Still for that read-out and setting: to `CC(=O)NCc1ccc(Cl)c(Nc2nc3cc(C(=O)NCC(F)(F)F)c(OCC(F)F)cc3n2C)c1Cl` [Example 115] belongs 300 nM; to `COC(C)(C)C(=O)NCc1ccc(Cl)c(Nc2nc3cc(C(=O)NCC(F)(F)F)c(OCC(F)F)cc3n2C)c1Cl` [Example 130], 3 nM; to `Cn1c(Nc2c(Cl)ccc(CNC(=O)CC3CC3)c2Cl)nc2cc(C(=O)NCC(F)(F)F)c(OCC(F)F)cc21` [Example 88], 68 nM.
Still for that read-out and setting: to `CCC(=O)NCc1ccc(Cl)c(Nc2nc3cc(C(=O)Nc4ccc(F)c(Cl)c4)c(OCC(F)F)cc3n2C)c1Cl` [Example 146] belongs 2 nM.
The same measure, in the same setting: to `Cn1c(Nc2c(Cl)ccc(CNC(=O)C3CC3)c2Cl)nc2cc(C(=O)Nc3ccc(F)c(Cl)c3)c(OCC(F)F)cc21` [Example 148] belongs 2 nM; to `Cn1c(Nc2c(Cl)ccc(CNC(=O)C(C)(C)C)c2Cl)nc2cc(C(=O)Nc3cccc(C#N)c3)c(OCC(F)F)cc21` [Example 28], 1 nM; to `Cn1c(Nc2c(Cl)ccc(CNC(=O)C(C)(F)F)c2Cl)nc2cc(C(=O)Nc3ccc(F)c(Cl)c3)c(OCC(F)F)cc21` [Example 162], less than 1 nM.
Take `Cn1c(Nc2c(Cl)ccc(CNC(=O)C(O)C(F)(F)F)c2Cl)nc2cc(C(=O)NCC(F)(F)F)c(OCC(F)F)cc21` (stereo not shown) [Example 96]: the IC50 was 14 nM.
As for `Cn1ccnc1C(=O)NCc1ccc(Cl)c(Nc2nc3cc(C(=O)Nc4ccc(F)c(Cl)c4)c(OCC(F)F)cc3n2C)c1Cl` [Example 156], the IC50 is 10 nM.
As for `CC(C)(C)C(=O)NCc1ccc(F)c(Nc2nc3cc(C(=O)Nc4ccc(Br)cc4)c(OCC(F)F)cc3n2C2CC2)c1F` [Example 11], the IC50 is 4 nM.
Turning to `CC(O)C(=O)NCc1ccc(Cl)c(Nc2nc3cc(C(=O)Nc4ccc(F)c(Cl)c4)c(OCC(F)F)cc3n2C)c1Cl` (stereo not shown) [Example 147], the IC50 came to 4 nM.
For the molecule `Cn1c(Nc2c(Cl)ccc(CNC(=O)C(C)(O)C(F)(F)F)c2Cl)nc2cc(C(=O)Nc3ccc(F)c(Cl)c3)c(OCC(F)F)cc21` (stereo not shown) [Example 149], the half-maximal inhibitory concentration (IC50) was determined as 1 nM.
Still for that read-out and setting: to `Cn1c(Nc2c(Cl)ccc(CNC(=O)c3ccc(Cl)s3)c2Cl)nc2cc(C(=O)NCC(F)(F)F)c(OCC(F)F)cc21` [Example 92] belongs 9 nM; to `COCC(=O)NCc1ccc(Cl)c(Nc2nc3cc(C(=O)NCC(F)(F)F)c(OCC(F)F)cc3n2C)c1Cl` [Example 101], 11 nM.
On the same count and under the same terms, to `Cn1c(Nc2c(Cl)ccc(CNC(=O)CO)c2Cl)nc2cc(C(=O)Nc3ccc(F)c(Cl)c3)c(OCC(F)F)cc21` [Example 139] belongs 27 nM.
Same read-out and setting: to `Cn1c(Nc2c(Cl)ccc(CNC(=O)C(C)(C)C(F)(F)F)c2Cl)nc2cc(C(=O)Nc3ccc(F)c(Cl)c3)c(OCC(F)F)cc21` [Example 176] belongs less than 1 nM; to `Cn1c(Nc2c(Cl)ccc(CNC(=O)C3(C(F)(F)F)CCCC3)c2Cl)nc2cc(C(=O)Nc3ccc(F)c(Cl)c3)c(OCC(F)F)cc21` [Example 165], less than 1 nM; to `Cn1c(Nc2c(Cl)ccc(CNC(=O)C3(C#N)CC3)c2Cl)nc2cc(C(=O)Nc3ccc(F)c(Cl)c3)c(OCC(F)F)cc21` [Example 145], 7 nM.
`Cn1c(Nc2c(Cl)ccc(CNC(=O)C3CCCO3)c2Cl)nc2cc(C(=O)NCC(F)(F)F)c(OCC(F)F)cc21` (stereo not shown) [Example 90]: the IC50 was determined as 36 nM.
As for `Cn1c(Nc2c(Cl)ccc(CNC(=O)C(C)(C)CO)c2Cl)nc2cc(C(=O)NCC(F)(F)F)c(OCC(F)F)cc21` [Example 126], the IC50 is 72 nM.
Take `Cn1c(Nc2c(Cl)ccc(CNC(=O)C3(O)CC3)c2Cl)nc2cc(C(=O)NCC(F)(F)F)c(OCC(F)F)cc21` [Example 93]: the IC50 stood at 66 nM.
As to `Cn1c(Nc2c(Cl)ccc(CNC(=O)C3(C)COC3)c2Cl)nc2cc(C(=O)Nc3ccc(F)c(Cl)c3)c(OCC(F)F)cc21` [Example 150], the IC50 was 1 nM.
The same measure, in the same setting: to `Cn1c(Nc2c(Cl)ccc(CNC(=O)C3(C(F)(F)F)CCC3)c2Cl)nc2cc(C(=O)NCC(F)(F)F)c(OCC(F)F)cc21` [Example 86] belongs less than 1 nM; to `Cn1c(Nc2c(Cl)ccc(CNC(=O)c3cc[nH]n3)c2Cl)nc2cc(C(=O)Nc3ccc(F)c(Cl)c3)c(OCC(F)F)cc21` [Example 134], 8 nM; to `Cn1c(Nc2c(Cl)ccc(CNC(=O)c3cc(C(F)(F)F)n[nH]3)c2Cl)nc2cc(C(=O)Nc3ccc(F)c(Cl)c3)c(OCC(F)F)cc21` [Example 136], 17 nM.
For `Cn1c(Nc2c(Cl)ccc(CNC(=O)c3cc[nH]n3)c2Cl)nc2cc(C(=O)NCC(F)(F)F)c(OCC(F)F)cc21` [Example 127], the concentration for half-maximal inhibition (IC50) worked out at 85 nM.
As for `CC(C)C(=O)NCc1ccc(Cl)c(Nc2nc3cc(C(=O)Nc4ccc(F)c(Cl)c4)c(OCC(F)F)cc3n2C)c1Cl` [Example 151], the half-inhibitory concentration (IC50) is 1 nM.
The same measure, in the same setting: in the case of `Cn1c(Nc2c(Cl)ccc(CNC(=O)CC(F)(F)F)c2Cl)nc2cc(C(=O)Nc3ccc(F)c(Cl)c3)c(OCC(F)F)cc21` [Example 131] it was 1 nM; in that of `CCCC(=O)NCc1ccc(Cl)c(Nc2nc3cc(C(=O)Nc4ccc(F)c(Cl)c4)c(OCC(F)F)cc3n2C)c1Cl` [Example 132], 2 nM; in that of `Cc1nc(C)c(C(=O)NCc2ccc(Cl)c(Nc3nc4cc(C(=O)Nc5ccc(F)c(Cl)c5)c(OCC(F)F)cc4n3C)c2Cl)s1` [Example 138], 49 nM.
With `COCC(=O)NCc1ccc(Cl)c(Nc2nc3cc(C(=O)Nc4ccc(F)c(Cl)c4)c(OCC(F)F)cc3n2C)c1Cl` [Example 163], the IC50 was 5 nM.
Still for that read-out and setting: in the case of `CC(C(=O)NCc1ccc(Cl)c(Nc2nc3cc(C(=O)Nc4ccc(F)c(Cl)c4)c(OCC(F)F)cc3n2C)c1Cl)C(F)(F)F` (stereo not shown) [Example 141] it was less than 1 nM; in that of `Cn1c(Nc2c(Cl)ccc(CNC(=O)C(C)(C)C)c2Cl)nc2cc(C(=O)Nc3ccc(F)c(Cl)c3)c(OCCF)cc21` [Example 177, N-(3-Chloro-4-fluoro-phenyl)-2-{2,6-dichloro-3-[(2,2-dimethyl-propionylamino)-methyl]-phenylamino}-6-(2-fluoroethoxy)-1-methyl-1H-benzimidazole-5-carboxylic acid amide], less than 1 nM.
Turning to `Cn1c(Nc2c(Cl)ccc(CNC(=O)C(C)(F)F)c2Cl)nc2cc(C(=O)NCC(F)(F)F)c(OCC(F)F)cc21` [Example 95], the IC50 amounted to 13 nM.
For the molecule `Cn1c(Nc2c(Cl)ccc(CNC(=O)c3c(F)cccc3Cl)c2Cl)nc2cc(C(=O)Nc3ccc(F)c(Cl)c3)c(OCC(F)F)cc21` [Example 158], the 50% inhibitory concentration (IC50) was less than 1 nM.
`Cn1c(Nc2c(Cl)ccc(CNC(=O)C(C)(C)C)c2Cl)nc2cc(C(=O)Nc3ccc(Br)cc3)c(F)cc21` [Example 7]: the IC50 came to 1 nM.
`CC(C)(C)C(=O)NCc1ccc(Cl)c(Nc2nc3cc(OC(F)F)c(C(=O)N[C@H]4CC[C@H](C(F)(F)F)CC4)cc3[nH]2)c1Cl` [Example 78]: the concentration for half-maximal inhibition (IC50) was found to be 8 nM.
For the molecule `Cn1c(Nc2c(Cl)ccc(CNC(=O)C3(C#N)CC3)c2Cl)nc2cc(C(=O)NCC(F)(F)F)c(OCC(F)F)cc21` [Example 113], the IC50 was 25 nM.
Still for that read-out and setting: in the case of `Cn1c(Nc2c(Cl)ccc(CNC(=O)C3(C)CCCO3)c2Cl)nc2cc(C(=O)Nc3ccc(F)c(Cl)c3)c(OCC(F)F)cc21` (stereo not shown) [Example 170] it was less than 1 nM.
Still for that read-out and setting: in the case of `Cn1c(Nc2c(Cl)ccc(CNC(=O)CC#N)c2Cl)nc2cc(C(=O)NCC(F)(F)F)c(OCC(F)F)cc21` [Example 112] it was 19 nM.
With `Cn1c(Nc2c(Cl)ccc(CNC(=O)C(C)(C)O)c2Cl)nc2cc(C(=O)NCC(F)(F)F)c(OCC(F)F)cc21` [Example 108], the 50% inhibitory concentration (IC50) is 59 nM.
For the molecule `Cn1c(Nc2c(Cl)ccc(CNC(=O)c3ccno3)c2Cl)nc2cc(C(=O)NCC(F)(F)F)c(OCC(F)F)cc21` [Example 107], the IC50 was 106 nM.

Staying with this assay, now noted: Table C comparison of selected benzimidazoles, A549 cells, read-out: Cell IC50.
With `Cn1c(Nc2cc(CNC(=O)C(C)(C)C)ccc2Cl)nc2cc(C(=O)NCC3CC3)c(OCC(F)F)cc21` [[drawing 49] of PCT/EP2010/052799, reference compound], the IC50 was more than 200 nM.
